Data set [1] has as its system adipocyte-differentiated human adipose stem cells. Briefly: Effect of GSK3B inhibitor on dexamethasone-induced circadian gene expression profiles of human ASCs (qRT-PCR). The following applies: 30 μM in serum-free media after 2 hr 1 μM dexamethasone, FIG. 12. Format: cell-based. How it is done: Treatment of human adipose derived stem cells with dexamethasone was shown above to induce a circadian rhythm in vitro, and studies were conducted to see if this induction would be blocked by the addition of a glycogen synthase kinase 3 beta inhibitor. Confluent cultures of human ASCs were induced by exposure to 1 micromolar dexamethasone for a period of 2 hr. The medium was changed to either serum-free media (SF), or serum-free media with 30 μM SB415286 (SB415, an inhibitor of glycogen synthase kinase 3 beta). Individual cultures were harvested for total RNA at the indicated times and used for qRT-PCR analysis of gene expression of Bmal1, Per3, and Rev-erbα, and normalized relative to the corresponding Cyclophilin B levels.
(In general: Quantitative PCR measures a nucleic acid by following its amplification.)

In data set [2] the test system is undifferentiated human ASCs. The data set can be described thus: Circadian gene expression induction in undifferentiated human ASCs (qRT-PCR). The following applies: for Rev-erbα and Rev-erbβ expression zenith, time: three donors. Format: cell-based. From the text:
Human Adipose-Derived Stem Cell (ASCs) Isolation and Expansion. All protocols were reviewed and approved by the Pennington Biomedical Research Center Institutional Research Board (IRB; Baton Rouge, La.) prior to the study. Liposuction aspirates from subcutaneous adipose tissue sites were obtained from female subjects undergoing elective procedures in local plastic surgical offices. Tissues were washed 3-4 times with phosphate-buffered saline (PBS) and suspended in an equal volume of PBS supplemented with 1% bovine serum and 0.1% collagenase type I (Worthington Biochemical Corporation, Lakewood, N.J.) prewarmed to 37° C. The tissue was then placed in a shaking water bath at 37° C. with continuous agitation for 60 min and centrifuged for 5 min at 300-500×g at room temperature. The supernatant, containing mature adipocytes, was aspirated. The pellet was identified as the stromal vascular fraction (SVF). Portions of the SVF were resuspended in cryopreservation medium (10% dimethylsulfoxide, 10% DMEM/F 12 Ham's, 80% fetal bovine serum), frozen at −80° C. in an ethanol-jacketed, closed container, and subsequently stored in liquid nitrogen. Portions of the SVF were used in colony forming unit assays (see below). The remaining cells of the SVF were suspended and plated immediately in T225 flasks in stromal medium (DMEM/F 12 Ham's, 10% fetal bovine serum (Hyclone, Logan, Utah), 100 U penicillin/100 μg streptomycin/0.25 μg Fungizone) at a density of 0.156 ml of tissue digest/sq cm of surface area for expansion and culture. This initial passage of the primary cell culture was referred to as “Passage 0” (P0). […] The cells were passaged by trypsin (0.05%) digestion and plated at a density of 5,000 cells/cm^2 (“Passage 1”). Cell viability and numbers at the time of passage were determined by trypan blue exclusion and hemacytometer cell counts. Cells were passaged repeatedly after achieving a density of 75-90% (approximately 6 days in culture) until Passage 2.
Circadian Induction: The medium was removed from confluent cultures of undifferentiated or adipocyte-differentiated human ASCs in 6 well plates and replaced with DMEM/Ham's F12 medium and 100 U penicillin/100 μg streptomycin/0.25 μg Fungizone alone or supplemented with one of the following: 30% FBS, 1 μM dexamethasone, or 5 μM rosiglitazone. The ASCs were exposed to the inductive agents for 2 hr. A single plate under each condition was harvested for total RNA after 1 hr of induction. After 2 hr, the medium in the remaining plates was replaced with serum free DMEM/Ham's F12 medium and 100 U penicillin/100 μg streptomycin/0.25 μg Fungizone alone.
Quantitative Real-time RT-PCR (qRT-PCR) for Human ASCs: Total RNA was purified from the ASCs as described above for mouse tissues using TriReagent (Molecular Research Center) according to the manufacturer's specifications. Approximately 2 μg of total RNA was reverse transcribed using Moloney Murine Leukemia Virus Reverse Transcriptase (MMLV-RT; Promega), with Oligo dT at 42° C. for 1 hr in a 20 μL reaction. Primers for genes of interest (listed in Table 2) were identified using Primer Express software (Applied Biosystems). All primers were based on the sequence of the corresponding human mRNA and were designed to amplify across at least one exon/intron junction. qRT-PCR was performed on diluted cDNA samples with SYBR® Green PCR Master Mix (Applied Biosystems) using the 7900 Real Time PCR system (Applied Biosystems) under universal cycling conditions (95° C. for 10 min; 40 cycles of 95° C. for 15 sec; then 60° C. for 1 min). All results were normalized relative to a Cyclophilin B expression control.
Periodicity Analysis: Periodicity of the circadian data obtained by qRT-PCR was tested with Time Series Analysis-Single Cosinor v. 6.0 software (Expert Soft Technologie). […] Model was also tested for validity at the 0.950 probability level (ANOVA).

Data set [3] deals with adipocyte-differentiated human ASCs. The data set can be described thus: Circadian gene expression induction in adipocyte-differentiated human ASCs (qRT-PCR). It counts as cell-based. From the text:
Human Adipose-Derived Stem Cell (ASCs) Isolation and Expansion. All protocols were reviewed and approved by the Pennington Biomedical Research Center Institutional Research Board (IRB; Baton Rouge, La.) prior to the study. Liposuction aspirates from subcutaneous adipose tissue sites were obtained from female subjects undergoing elective procedures in local plastic surgical offices. Tissues were washed 3-4 times with phosphate-buffered saline (PBS) and suspended in an equal volume of PBS supplemented with 1% bovine serum and 0.1% collagenase type I (Worthington Biochemical Corporation, Lakewood, N.J.) prewarmed to 37° C. The tissue was then placed in a shaking water bath at 37° C. with continuous agitation for 60 min and centrifuged for 5 min at 300-500×g at room temperature. The supernatant, containing mature adipocytes, was aspirated. The pellet was identified as the stromal vascular fraction (SVF). Portions of the SVF were resuspended in cryopreservation medium (10% dimethylsulfoxide, 10% DMEM/F 12 Ham's, 80% fetal bovine serum), frozen at −80° C. in an ethanol-jacketed, closed container, and subsequently stored in liquid nitrogen. Portions of the SVF were used in colony forming unit assays (see below). The remaining cells of the SVF were suspended and plated immediately in T225 flasks in stromal medium (DMEM/F 12 Ham's, 10% fetal bovine serum (Hyclone, Logan, Utah), 100 U penicillin/100 μg streptomycin/0.25 μg Fungizone) at a density of 0.156 ml of tissue digest/sq cm of surface area for expansion and culture. This initial passage of the primary cell culture was referred to as “Passage 0” (P0). Following the first 48 hr of incubation at 37° C. at 5% CO2, the cultures were washed with PBS and maintained in Stromal Media until they achieved 75-90% confluence (approximately 6 days in culture). The cells were passaged by trypsin (0.05%) digestion and plated at a density of 5,000 cells/cm^2 (“Passage 1”). Cell viability and numbers at the time of passage were determined by trypan blue exclusion and hemacytometer cell counts. Cells were passaged repeatedly after achieving a density of 75-90% (approximately 6 days in culture) until Passage 2. […]
Quantitative Real-time RT-PCR (qRT-PCR) for Human ASCs: Total RNA was purified from the ASCs as described above for mouse tissues using TriReagent (Molecular Research Center) according to the manufacturer's specifications. […]

Data set [4] has as its system bipolar patients. Conditions: A. Fagiolini et al., 2002, 2003; cited from earlier work.
Setting [5] is: 1 μM for 2 hr, then serum free medium, four donors, FIG. 8B.
Where [6] appears, read: undifferentiated ASCs, 2 hr exposure.
Setting [7] is: adipocyte-differentiated vs undifferentiated ASCs.

`O=C1NC(=O)C(c2ccccc2[N+](=O)[O-])=C1Nc1ccc(O)c(Cl)c1` [SB415286]: the “effect on circadian cycle of gene expression” value in data set [1] was “shifted and lengthened”. For the same molecule, the “mRNA induction profile delayed and shifted (Bmal1, Per3, Rev-erb alpha)” value in data set [1] (vs serum-free media alone) was 6 to 9 h.
As for `C[C@@H]1C[C@H]2[C@@H]3CCC4=CC(=O)C=C[C@]4(C)[C@@]3(F)[C@@H](O)C[C@]2(C)[C@@]1(O)C(=O)CO` [dexamethasone], in data set [2] (setting [5]), the “Bmal1 peak levels, first peak, time following induction” value lay within 16 to 20 h; the “Bmal1 peak levels, second peak, time following induction” value was found to be 40 h; the “Per1, Per3, and Cry2 expression peaks, time after induction” value lay within 28 to 32 h; the “immediate-early induction of Per1, Per3, and Cry2 mRNAs, time after induction” value fell in the range of 1 to 4 h. The “phase shift of Bmal1 relative to Per1, Per3, and Cry2” value in data set [2] (1 μM for 2 hr, four donors) was in the range of 8 to 12 h. In addition, the “Rev-erbα peak levels, time post induction” value in data set [2] (1 μM for 2 hr, four donors, FIG. 8B) is 24 h. For the same molecule, the “Rev-erbα and Rev-erbβ expression zenith, time” value in data set [2] (setting [6]) is 24 h. For the same molecule, the “Per 3 subsequent peak, time” value in data set [3] (adipocyte-differentiated ASCs, 2 hr exposure, three donors) was in the range of 20 to 24 h. Besides, the “Rev-erbα and Rev-erbβ phase-advance relative to the undifferentiated ASCs” value in data set [3] (setting [7]) was about 8 h.
Take `[Cl-].[Li+]` [lithium chloride]: the “weight change under pharmacotherapy” value in data set [4] was “gain weight rapidly and become obese”.
`CN(CCOc1ccc(CC2SC(=O)NC2=O)cc1)c1ccccn1` (stereo not shown) [thiazolidinedione, rosiglitazone]: in data set [2] (setting [6]), the “Per 3 immediate early response” value is on record as “Neither 30% serum nor thiazolidinedione initiated an immediate early response”; the “Rev-erbα and Rev-erbβ expression zenith, time” value was found to be 24 h. Also, in data set [3] (setting [7]), the “Per 3 peak expression earlier in adipocyte-differentiated than in undifferentiated ASCs” value is “approximately 4 hr”; the “Rev-erbα and Rev-erbβ phase-advance relative to the undifferentiated ASCs” value is about 8 h.

The record behind these values is US20090202659A1, “Modulation of Peripheral Clocks in Adipose Tissue” (priority 2005, published 2009).
